Source: patent publication US20240018145A1, “[…]-DEPENDENT EN[…] TREATING OR […]” (priority 2020, published 2024)
Like-named read-outs stand apart in the source and are kept apart here.

Test system: FLU A (PR/8/34)
Experiment: Flu A Neuraminidase Antiviral Assay
Assay type: cell-based

Compound	EC50 (MDCK, 48 h) [nM]	EC50 [nM]
CN1C(=O)c2c(O)c(=O)ccn2N2C(c3cccc(OC(F)F)c3)CCCC12 (single isomer, unassigned) [Compound 12A, 1-(3-(difluoromethoxy)phenyl)-7-hydroxy-5-methyl-1,2,3,4,4a,5-hexahydrodipyrido[1,2-b:2′,1′-f][1,2,4]triazine-6,8-dione]	> 8100	–
CN1C(=O)c2c(O)c(=O)ccn2N2C1CCCC2(C)c1ccccn1 (single isomer, unassigned) [Compound 30A, 7-hydroxy-1,5-dimethyl-1-(pyridin-2-yl)-1,2,3,4,4a,5-hexahydrodipyrido[1,2-b:2′,1′-f][1,2,4]triazine-6,8-dione]	–	16.6
CN1C(=O)c2c(O)c(=O)ccn2N2C1CCC1(CCC(F)(F)C1)C2c1ccccc1 (single isomer, unassigned) [Compound 68B, 3,3-difluoro-7′-hydroxy-5′-methyl-1′-phenyl-3′,4′,4a′,5′-tetrahydro-1′H-spiro[cyclopentane-1,2′-dipyrido[1,2-b:2′,1′-f][1,2,4]triazine]-6′,8′-dione]	–	> 810
CN1C(=O)c2c(O)c(=O)ccn2N2C1CCCC21CCCc2ccccc21 (single isomer, unassigned) [Compound 32B, 7-hydroxy-5-methyl-3,3′,4,4a,4′,5-hexahydro-2H,2′H-spiro[dipyrido[1,2-b:2′,1′-f][1,2,4]triazine-1,1′-naphthalene]-6,8-dione]	–	156
COCCN1C(=O)c2c(O)c(=O)ccn2N2C(c3ccc(F)cc3)CCCC12 (single isomer, unassigned) [Compound 4B, 1-(4-fluorophenyl)-7-hydroxy-5-(2-methoxyethyl)-1,2,3,4,4a,5-hexahydrodipyrido[1,2-b:2′,1′-f][1,2,4]triazine-6,8-dione]	–	> 8100
Cc1cccc(C2(C)CCCC3N(CC(F)F)C(=O)c4c(O)c(=O)ccn4N32)n1 (single isomer, unassigned) [Compound 54B, 5-(2,2-difluoroethyl)-7-hydroxy-1-methyl-1-(6-methylpyridin-2-yl)-1,2,3,4,4a,5-hexahydrodipyrido[1,2-b:2′,1′-f][1,2,4]triazine-6,8-dione]	–	24.9
O=C1c2c(O)c(=O)ccn2N2C(c3ccccc3)C(CCC(F)(F)F)CCC2N1CC1CC1 (single isomer, unassigned) [Compound 100B, 5-(cyclopropylmethyl)-7-hydroxy-1-phenyl-2-(3,3,3-trifluoropropyl)-1,2,3,4,4a,5-hexahydrodipyrido[1,2-b:2′,1′-f][1,2,4]triazine-6,8-dione]	–	5.4
CCN1C(=O)c2c(O)c(=O)ccn2N2C1CCC1(CCC(F)(F)CC1)C2c1ccccc1 (single isomer, unassigned) [Compound 76B]	–	2
Cc1ccccc1C1C(CC(F)(F)F)CCC2N(C)C(=O)c3c(O)c(=O)ccn3N12 (single isomer, unassigned) [Compound 120A, 7-hydroxy-5-methyl-1-(o-tolyl)-2-(2,2,2-trifluoroethyl)-1,2,3,4,4a,5-hexahydrodipyrido[1,2-b:2′,1′-f][1,2,4]triazine-6,8-dione]	–	2720
CN1C(=O)c2c(O)c(=O)ccn2N2C(c3ccccc3)C(c3ccc(F)c(F)c3F)CCC12 (single isomer, unassigned) [Compound 85C, 7-hydroxy-5-methyl-1-phenyl-2-(2,3,4-trifluorophenyl)-1,2,3,4,4a,5-hexahydrodipyrido[1,2-b:2′,1′-f][1,2,4]triazine-6,8-dione]	–	> 810
CN1C(=O)c2c(O)c(=O)ccn2N2C1CCCC2(C)c1ccccc1F (single isomer, unassigned) [Compound 24B, 1-(2-fluorophenyl)-7-hydroxy-1,5-dimethyl-1,2,3,4,4a,5-hexahydrodipyrido[1,2-b:2′,1′-f][1,2,4]triazine-6,8-dione]	–	1240
CCOC1CCC2N(C)C(=O)c3c(O)c(=O)ccn3N2C1c1ccccc1 (centres unmarked) [Compound 152A, 2-ethoxy-7-hydroxy-5-methyl-1-phenyl-1,2,3,4,4a,5-hexahydrodipyrido[1,2-b:2′,1′-f][1,2,4]triazine-6,8-dione]	–	4300
CN1C(=O)c2c(O)c(=O)ccn2N2C(c3ccccc3)C(Cc3ccccc3)CCC12 (single isomer, unassigned) [Compound 117A, 2-benzyl-7-hydroxy-5-methyl-1-phenyl-1,2,3,4,4a,5-hexahydrodipyrido[1,2-b:2′,1′-f][1,2,4]triazine-6,8-dione]	–	3530
CCCC1CCC2C(n3ccc(=O)c(O)c3C(=O)N2C)C1(O)c1ccccc1 (single isomer, unassigned) [Compound 166B, 1,7-dihydroxy-5-methyl-1-phenyl-2-propyl-1,3,4,4a,5,11a-hexahydro-2H-pyrido[1,2-a]quinoxaline-6,8-dione]	–	> 8100
